Test results: patent EP0683161A1, “Ester of 4-amino-5-chloro-2-methoxybenzoic acid, process for their preparation and pharmaceutical compositions containing them” (MIDY S.p.A., priority 1994, dated 1995)

How the values were obtained:
récepteur 5-HT₄ [1] = target: récepteur 5-HT₄ (Homo sapiens, UniProt Q13639); experiment: activity of the separated cis and trans isomers at the 5-HT4 receptor (test not specified); settings: cis and trans isomers evaluated separately
récepteur 5-HT₄ [2] = target: T1, récepteur 5-HT₄ (Cavia porcellus, UniProt O70528); experiment: 5-HT response of the electrically stimulated guinea pig ileum myenteric plexus (modified Craig and Clarke test); parameters: species or system cobayes; settings: 30 min incubation, cumulative 5-HT curve 10⁻¹⁰ to 10⁻⁵M
T1 construct: On isole le plexus myentérique à partir de segments d'iléon de 3 cm environ; from tissue; host or cells: guinea pig ileum myenteric plexus (isolated organ bath)
Description: Dans le but d'évaluer l'activité vis-à-vis du récepteur 5-HT₄, on a soumis les composés de l'invention à l'essai décrit par D.A. Craig et D.E. Clarke. (J. Pharmacol. Exp. Ther., 1990, 252: 1378-86) en lui apportant quelques modifications.
Des cobayes albinos mâles - Charles River Italia - (poids moyen de 500 g) sont sacrifiés par décapitation. On isole le plexus myentérique à partir de segments d'iléon de 3 cm environ, prélevés à 10 cm de la jonction iléooeecale; on place le plexus dans un bain de 20 ml pour organes isolés, contenant une solution de Krebs et de l'acide ascorbique à raison de 1 mg/ml. On maintient la solution, aérée au carboxygène, à la température de 37°C. Le plexus, relié à un transducteur isotonique et soumis à une charge de 0,5 g, est stimulé électriquement de façon supramaximale (fréquence 0,2 Hz, durée […]) par une électrode coaxiale au platine. La préparation est traitée avec de la phénoxybenzamine 10⁻⁷M pendant 30 minutes et, ensuite, lavée plusieurs fois. On réduit le voltage jusqu'à obtenir un effet stimulant de 50% par rapport au maximum et le plexus est ensuite stimulé par la sérotonine à raison de 3·10⁻⁷M. Après lavage et stabilisation, la préparation est prête pour l'essai des composés à activité 5-HT₄. Trois courbes cumulatives de 5-HT sont construites toutes les 60 minutes. […]

récepteurs 5-HT₄ = récepteurs 5-HT₄ (Rattus norvegicus, UniProt Q62758); experiment: 5-HT relaxation of carbachol-contracted rat oesophagus tunica muscularis mucosae (Baxter and Clarke method); settings: rat oesophagus tunica muscularis mucosae contracted by carbachol; result in words only
Description: De plus, toujours pour l'évaluation de l'activité 5-HT₄, on a soumis le composé de formule (I) à un essai sur la tunica muscolaris mucosae de l'oesophage de rat contracté par du carbacol. […] Des rats mâles Crl:CD(SD)BR (Charles River Italia) d'un poids moyen de 250 g sont sacrifiés par dislocation cervicale. Un segment d'oesophage d'environ 2 cm est prélevé au niveau intratoraxique à proximité du diaphragme. La tunica muscolaris mucosae est ensuite isolée et suspendue dans un bain pour organes isolés de 20 ml contenant une solution de Krebs en présence d'hydrocortisone (3·10⁻⁷ M) à 37°C aérée avec 95% O₂ et 5% CO₂. Le tissu est relié à un transducteur isotonique et soumis à une charge de 1 g. La préparation est incubée avec de la pargiline (10⁻⁴ M) pendant 30 minutes et lavée plusieurs fois. Après 60 minutes environ, on contracte le tissu avec des doses cumulatives de carbacol (10⁻⁶, 2·10⁻⁶, 3·10⁻⁶, 4·10⁻⁶ M); de cette manière, on obtient un tonus du tissu stable dans le temps. La 5-HT (10⁻¹⁰ et 10⁻⁶ M), qui est ajoutée cumulativement, relaxe l'oesophage grâce à l'activation des récepteurs 5-HT₄. Trois courbes de carbacol sont construites par préparation toutes les 90 minutes. Après chaque courbe, on procède au moins à 4 lavages. Aussi bien la contraction provoquée par le carbacol que les effets sur celle-ci sont identiques et peuvent être reproduits. […]

récepteur 5-HT₃ = target: T2, récepteur 5-HT₃ (Rattus norvegicus, UniProt P35563); experiment: in vitro binding to 5-HT3 sites of rat cerebral cortex, displacement of [3H] BRL 43694 (granisetron); settings: rat cerebral cortex membranes, labelled ligand 0,5 nM
T2 construct: les sites de liaison 5-HT₃ présents dans le cortex cérébral du rat; from tissue; host or cells: rat cerebral cortex membranes
T2 sequence (P35563 24-483): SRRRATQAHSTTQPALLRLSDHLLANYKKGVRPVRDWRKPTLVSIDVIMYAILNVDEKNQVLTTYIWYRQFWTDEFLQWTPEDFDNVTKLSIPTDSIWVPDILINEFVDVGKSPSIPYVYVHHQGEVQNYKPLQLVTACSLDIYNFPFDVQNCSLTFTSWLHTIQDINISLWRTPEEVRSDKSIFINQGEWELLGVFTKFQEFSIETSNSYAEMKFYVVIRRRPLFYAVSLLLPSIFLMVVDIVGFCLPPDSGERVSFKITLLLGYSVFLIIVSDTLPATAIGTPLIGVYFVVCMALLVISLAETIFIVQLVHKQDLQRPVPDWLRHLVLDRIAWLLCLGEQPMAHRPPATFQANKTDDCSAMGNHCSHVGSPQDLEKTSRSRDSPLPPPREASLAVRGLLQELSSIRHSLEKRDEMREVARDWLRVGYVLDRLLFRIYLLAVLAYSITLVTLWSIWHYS
Method: Afin de tester l'affinité du composé de formule (I) relativement au récepteur 5-HT₃, on a effectué des essais de liaison in vitro en utilisant les sites de liaison 5-HT₃ présents dans le cortex cérébral du rat (G.J. Kilpatrick, B.J. Jones et M.B. Tyers, Nature, 1987; 330: 746-8) et comme ligand marqué le [³H] BRL 43694 (granisetron), un antagoniste des récepteurs 5-HT₃ puissant et spécifique, à la concentration de 0,5 nM.
La préparation des membranes et le test de liaison ont été effectués selon la méthode décrite par Nelson et Thomas (D.R. Nelson et D.R. Thomas, Biochem. Pharmacol., 1989; 38: 1693-5).
Les résultats ont été évalués avec des méthodes d'ajustement ("fitting") non linéaire "Accufit saturation", pour les études de saturation (H.A. Feldman, Analyt. Biochem., 1972; 48: 317-38) et "Accufit competition", pour les études de déplacement (H.A. Feldman, D. Rodbard et D. Levine, Analyt. Biochem., 1972; 45: 530-56).

Chain of récepteurs 5-HT₄ (Q62758 whole entry): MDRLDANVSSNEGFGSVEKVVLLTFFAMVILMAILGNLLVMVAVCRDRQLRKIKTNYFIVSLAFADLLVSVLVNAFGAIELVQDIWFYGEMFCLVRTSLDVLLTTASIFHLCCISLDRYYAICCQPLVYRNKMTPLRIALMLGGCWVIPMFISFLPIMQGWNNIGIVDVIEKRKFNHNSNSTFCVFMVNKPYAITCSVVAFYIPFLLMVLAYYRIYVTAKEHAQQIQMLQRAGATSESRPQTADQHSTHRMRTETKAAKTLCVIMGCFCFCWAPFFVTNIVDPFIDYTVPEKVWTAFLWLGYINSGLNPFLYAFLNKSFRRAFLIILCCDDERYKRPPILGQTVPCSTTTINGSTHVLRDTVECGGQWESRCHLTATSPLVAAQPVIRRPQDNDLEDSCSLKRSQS
Chain of récepteur 5-HT₄ (Homo sapiens, UniProt Q13639) (Q13639 whole entry): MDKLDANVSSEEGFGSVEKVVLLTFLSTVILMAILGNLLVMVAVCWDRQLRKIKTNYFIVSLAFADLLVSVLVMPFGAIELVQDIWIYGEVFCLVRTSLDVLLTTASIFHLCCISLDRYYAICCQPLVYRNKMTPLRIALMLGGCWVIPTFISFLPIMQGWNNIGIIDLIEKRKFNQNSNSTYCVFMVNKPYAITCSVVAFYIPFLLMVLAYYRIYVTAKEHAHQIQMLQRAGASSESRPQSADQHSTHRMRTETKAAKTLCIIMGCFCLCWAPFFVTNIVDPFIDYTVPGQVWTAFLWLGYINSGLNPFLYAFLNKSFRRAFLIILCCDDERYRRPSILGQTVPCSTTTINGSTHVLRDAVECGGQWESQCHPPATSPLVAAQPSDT
T1 sequence (O70528 whole entry): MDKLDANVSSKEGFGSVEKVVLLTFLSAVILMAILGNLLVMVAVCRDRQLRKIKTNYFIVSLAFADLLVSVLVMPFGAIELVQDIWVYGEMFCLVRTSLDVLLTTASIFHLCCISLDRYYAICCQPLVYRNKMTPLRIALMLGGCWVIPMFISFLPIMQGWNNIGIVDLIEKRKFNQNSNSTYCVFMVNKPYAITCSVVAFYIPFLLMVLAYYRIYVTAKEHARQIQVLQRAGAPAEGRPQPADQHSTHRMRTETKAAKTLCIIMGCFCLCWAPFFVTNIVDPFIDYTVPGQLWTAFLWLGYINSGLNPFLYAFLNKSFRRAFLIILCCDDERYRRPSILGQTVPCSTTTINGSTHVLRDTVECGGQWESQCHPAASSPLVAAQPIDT

COc1cc(N)c(Cl)cc1C(=O)OCCN1CC(C)CC(C)C1 (stereo not drawn) [isomère cis, isomère cis de l'ester 3,5-diméthylpipéridinoéthyliquede l'acide 4-amino-5-chloro-2-méthoxybenzoïque]
activité vis-à-vis du récepteur 5-HT₄ (récepteur 5-HT₄ [1]): le plus actif

COc1cc(N)c(Cl)cc1C(=O)OCCN1CC(C)CC(C)C1 (stereo not shown) [composé de formule (I), ester 3,5-diméthylpipéridinoéthyliquede l'acide 4-amino-5-chloro-2-méthoxybenzoïque]
IC₅₀, dose qui réduit de 50% la réponse de la 5-HT (récepteur 5-HT₄ [2]): quelques nanomoles | pA₂ (antagonism of 5-HT relaxation) (récepteurs 5-HT₄): très efficace | déplacement du [³H] BRL 43694 (récepteur 5-HT₃): inactif
